A word on the EC50: it is the concentration that produces a half-maximal response. What is called melting point is the temperature of the solid-liquid transition. As usually defined, the CC50 is the concentration at which the toxic effect on the cells reaches its halfway point.

In brackets after ≈: the same amount, converted by molar mass. Like-named read-outs stand apart in the source and are kept apart here. A value given as a limit tells only on which side of the number the result lay.

From patent US8450318B2 (priority 2007, dated 2013) come the findings set out here.

In one data set the test system is Feline Corona virus. The data set can be described thus: Activity on feline corona virus in CRFK cells. It counts as cell-based.
The test system of data set [1] is human corona (SARS) virus. Nature of the data set: microbe, parasite or virus in culture. It counts as cell-based. The conditions noted are these: for EC50: Severe acute respiratory syndrome coronavirus, read-out: Human Corona virus EC50; for Human Corona virus EC50: human corona (SARS) virus.
A short description of another data set: in vitro. Conditions: human, CEM cells.
The test system of the next data set is HIV-2. The data set can be described thus: Antiretrovirus assay, HIV-2. Conditions: for EC50: Human immunodeficiency virus 2, read-out: EC50 HIV-2.
For data set [2], the system named is HIV-1. The data set can be described thus: microbe, parasite or virus in culture. The conditions noted are these: Human immunodeficiency virus 1, CCRF-CEM, read-out: EC50 HIV-1.
Data set [3] deals with HIV-1.
Data set [4] deals with CRFK cells. Conditions: cytotoxicity, feline corona virus test.
In data set [5] the test system is CRFK cells. The conditions noted are these: cytotoxicity, human corona virus test.
The next data set relates to Para-influenza-3 virus. The data set can be described thus: Antiviral activity, Para-influenza-3 virus. It counts as cell-based. Conditions: Table 3, reference compounds.
A further data set relates to Reovirus-1. The data set can be described thus: Antiviral activity, Reovirus-1. Conditions: Table 3, reference compounds. It counts as cell-based.
The test system of another data set is Sindbis virus. Nature of the data set: Antiviral activity, Sindbis virus. It counts as cell-based. The conditions noted are these: Table 3, reference compounds.
For another data set, the system named is Coxsackie virus B4. Nature of the data set: microbe, parasite or virus in culture. The conditions noted are these: Table 3, reference compounds. It counts as cell-based.
Another data set concerns Punta Toro virus. Nature of the data set: Antiviral activity, Punta Toro virus. Conditions: Table 3, reference compounds. It counts as cell-based.
For data set [6], the system named is Herpes simplex virus-1 (KOS). The data set can be described thus: Antiviral activity, Herpes simplex virus-1 (KOS). It counts as cell-based. Conditions: Human alphaherpesvirus 1; Table 4, reference compounds.
Data set [7] deals with Herpes simples virus-2 (G). Nature of the data set: Antiviral activity, Herpes simplex virus-2 (G). It counts as cell-based. Conditions: Human alphaherpesvirus 2; Table 4, reference compounds.
For the next data set, the system named is Vaccinia virus. The data set can be described thus: microbe, parasite or virus in culture. It counts as cell-based. The conditions noted are these: Orthopoxvirus vaccinia, read-out: EC50 Vaccinia virus.
Data set [8] relates to Vesicular stomatitis virus. Nature of the data set: microbe, parasite or virus in culture. It counts as cell-based. Conditions: read-out: EC50 Vesicular stomatitis virus.
Data set [9] concerns Herpes simplex virus-1 TK KOS-ACV^r. Nature of the data set: Antiviral activity, Herpes simplex virus-1 TK KOS-ACVr. It counts as cell-based. Conditions: Human alphaherpesvirus 1, read-out: EC50 Herpes simplex virus-1 TK KOS-ACV^r.
The subject of another data set is Influenza A H1N1 subtype. The data set can be described thus: Anti-influenza activity in MDCK cells, Influenza A H1N1. Conditions: for EC50: Influenza A virus, reference compounds. It counts as cell-based. From the text:
(§1) MDCK cells (Madin Darby canine kidney cells) have been used for the experiments shown in table 5 using standard procedures known in the art.

The test system of the next data set is Influenza A H3N2 subtype. The data set can be described thus: Anti-influenza activity in MDCK cells, Influenza A H3N2. It counts as cell-based. The conditions noted are these: for EC50: Influenza A virus, reference compounds.
Excerpt: as §1

The next data set has as its system Influenza B. The data set can be described thus: Anti-influenza activity in MDCK cells, Influenza B. It counts as cell-based.
The subject of a further data set is CEM cells. Nature of the data set: Cytostatic/cytotoxic activity, inhibition of CEM cell proliferation. Conditions: Table 1.
[10] abbreviates: cell viability, formazan-based MTS assay.

`CCc1c(CNc2cc(C)cc(C)n2)c(CC)c(CNc2cc(C)cc(C)n2)c(CC)c1CNc1cc(C)cc(C)n1` [Compound 3b, 1,3,5-Tris[(4,6-dimethyl-pyridin-2-yl)aminomethyl]-2,4,6-triethyl-benzene]: the melting point was 183 to 185 °C. Besides, in the data set on Feline Corona virus, it took 1.1 ± 0.6 µg/mL (≈ 1.95 µM) to reach a half-maximal effect (EC50). Besides, the concentration giving a half-maximal response (EC50) in [1] turned out to be 8.6 ± 4.9 µg/mL (≈ 15.2 µM). The compound further registered a CC50 in “in vitro” of 2.87 ± 0.23 µg/mL (≈ 5.08 µM). The concentration giving a half-maximal response (EC50) in the data set with HIV-2 was above 0.8 µg/mL. Besides, the EC50 with HIV-1 [2] is above 0.8 µg/mL.

Consider `CCc1c(CNCC2COCCOCCOCCOCCO2)c(CC)c(CNc2cc(C)cc(C)n2)c(CC)c1CNc1cc(C)cc(C)n1` (stereo not shown) [Co12], for which the “Feline Corona virus EC50” value in the data set with Feline Corona virus was 1.4 ± 0.2 µg/mL. For the same compound, the “Human Corona virus EC50” value in data set [1] turned out to be 1.9 ± 0.6 µg/mL. The “EC50 HIV-1” value in the data set on HIV-1 [3] (Table 1a) was 1.35 ± 0.29 µg/mL (≈ 1.95 µM). Also, the “Feline Corona virus CC50” value in the data set on CRFK cells [4] came out at 11 ± 0 µg/mL. The “Human Corona virus CC50” value with CRFK cells [5] was 13 ± 1.2 µg/mL. Further, the “EC50 HIV-2” value in the data set with HIV-2 (Table 1a) was above 4 µg/mL.

As to `NC(=O)c1ncn([C@@H]2O[C@H](CO)[C@@H](O)[C@H]2O)n1` [Ribavirin], the concentration for a half-maximal effect (EC50) in the data set on Para-influenza-3 virus was 250 µM; in the data set on Reovirus-1 it was 150 µM; with Sindbis virus (Sindbis virus), 250 µM; in the data set on Coxsackie virus B4 (Enterovirus B, B4), above 250 µM; in the data set with Punta Toro virus (Punta Toro virus), 150 µM; in data set [6] it was 50 µM. Also, the concentration giving a half-maximal response (EC50) is 150 µM in data set [7]; 150 µM with Vaccinia virus; above 250 µM in data set [8]; 150 µM in [9]; 9 µM in the data set on Influenza A H1N1 subtype (H1N1, MTS, read-out: EC50 Influenza A H1N1 subtype MTS); 8.9 µM in the data set with Influenza A H1N1 subtype (H1N1, visual CPE, read-out: EC50 Influenza A H1N1 subtype visual CPE score). Further, the half-maximal effective concentration (EC50) in the data set on Influenza A H3N2 subtype (H3N2, MTS, read-out: EC50 Influenza A H3N2 subtype MTS) came to 8.9 µM; in the data set on Influenza A H3N2 subtype (H3N2, visual CPE, read-out: EC50 Influenza A H3N2 subtype visual CPE score) it was 8.9 µM.

Consider `CCc1c(CNc2ccc3ccc(C)nc3n2)c(CC)c(CNc2ccc3ccc(C)nc3n2)c(CC)c1CNc1ccc2ccc(C)nc2n1` [Compound 25], for which the “Feline Corona virus EC50” value with Feline Corona virus came to 9.1 ± 0.4 µg/mL. Moreover, in data set [1], the “Human Corona virus EC50” value came to 20 ± 5 µg/mL. The “EC50 Influenza A H1N1 subtype MTS” value with Influenza A H1N1 subtype (setting [10]) is above 4 µg/mL. For the same compound, in the data set on Influenza A H1N1 subtype (visual scoring of the CPE), the “EC50 Influenza A H1N1 subtype visual CPE score” value was above 4 µg/mL. Further, in the data set on Influenza A H3N2 subtype (setting [10]), the “EC50 Influenza A H3N2 subtype MTS” value was above 4 µg/mL. In the data set on Influenza A H3N2 subtype (visual scoring of the CPE), the “EC50 Influenza A H3N2 subtype visual CPE score” value is above 4 µg/mL. Further, the “EC50 Influenza B MTS” value in the data set with Influenza B (setting [10]) was above 4 µg/mL. Moreover, the “EC50 Influenza B visual CPE score” value with Influenza B (visual scoring of the CPE) was above 4 µg/mL. Besides, in the data set on HIV-1 [3] (Table 1, CEM cells, prevention of syncytium formation by 50%, 4 to 5 days), the “EC50 HIV-1” value worked out at 1.25 ± 0.35 µg/mL (≈ 1.85 µM). Besides, the “Feline Corona virus CC50” value in the data set with CRFK cells [4] turned out to be 92 ± 9 µg/mL. For the same compound, the “Human Corona virus CC50” value with CRFK cells [5] is above 100 µg/mL. The “EC50 HIV-2” value in the data set on HIV-2 (Table 1) is above 20 µg/mL. Moreover, in the data set on CEM cells, the “cytotoxicity (in words)” value is “low cytotoxicity”. The compound further registered a CC50 in the data set on CEM cells (50% cytostatic concentration, CEM cell proliferation) of 81.7 ± 26.0 µg/mL (≈ 121 µM).

As to `Nc1ncnc2c1ncn2C[C@H](O)CO` [(S)-DHPA], the EC50 in the data set on Sindbis virus, with Coxsackie virus B4 and in the data set with Punta Toro virus was above 250 µM in each case.

On to `O=c1[nH]c(=O)n([C@H]2C[C@H](O)[C@@H](CO)O2)cc1/C=C/Br` [Brivudin], for which the concentration giving a half-maximal response (EC50) in the data set with Para-influenza-3 virus is above 250 µM; in the data set with Reovirus-1, above 250 µM; in the data set with Sindbis virus (Sindbis virus) it was above 250 µM; in the data set with Coxsackie virus B4 (Enterovirus B, B4), above 250 µM; in the data set with Punta Toro virus (Punta Toro virus), above 250 µM; in data set [6], 0.016 µM. Also, the EC50 is 10 µM in data set [7], 2 µM with Vaccinia virus, above 250 µM in data set [8] and 50 µM in data set [9].

As to `Cc1cc(C)nc(NCc2c(C)c(CNc3cc(C)cc(C)n3)c(C)c(CNc3cc(C)cc(C)n3)c2C)c1` [Compound 3a, 1,3,5-Tris[(4,6-dimethyl-pyridin-2-yl)aminomethyl]-2,4,6-trimethyl-benzene], the melting point lay within 193 to 195 °C. This compound registered an EC50 in the data set on Feline Corona virus of 0.8 ± 0.6 µg/mL (≈ 1.53 µM). Besides, the EC50 in data set [1] came to 1.3 ± 0.2 µg/mL (≈ 2.49 µM). The CC50 in the data set “in vitro” is 2.63 ± 0.08 µg/mL (≈ 5.03 µM). The EC50 in the data set with HIV-2 was above 0.8 µg/mL. The concentration for a half-maximal effect (EC50) with HIV-1 [2] was above 0.8 µg/mL.

`Nc1nc(O)c2ncn(COC(CO)CO)c2n1` [Ganciclovir]: the EC50 in data set [6] is 0.0064 µM; in data set [7], 0.032 µM; with Vaccinia virus, 100 µM; in data set [8], above 150 µM; in data set [9], 12 µM.

`Cc1ccc2ccc(NCc3c(C)c(CNc4ccc5ccc(C)nc5n4)c(C)c(CNc4ccc5ccc(C)nc5n4)c3C)nc2n1` [Compound 24]: in the data set on Feline Corona virus, the “Feline Corona virus EC50” value worked out at 42 ± 0 µg/mL. Besides, in data set [1], the “Human Corona virus EC50” value turned out to be 38 ± 1 µg/mL. Besides, the “Feline Corona virus CC50” value in the data set on CRFK cells [4] was above 100 µg/mL. Further, the “Human Corona virus CC50” value in the data set with CRFK cells [5] was above 100 µg/mL.

Turning to `Nc1nc2c(ncn2COCCO)c(=O)[nH]1` [Acyclovir], the concentration for a half-maximal effect (EC50) in data set [6] was 0.4 µM; in data set [7], 0.08 µM; in the data set with Vaccinia virus it was above 250 µM; in data set [8] it was above 250 µM; in data set [9] it was 150 µM.
